Assay results taken from patent publication EP3050886A1, “Fluorescent dyes and dye precursors” (Bürkert Werke GmbH, priority 2015, dated 2016).

Experiments:
[1] = Absorption spectra / extinction coefficients; format: physicochemical; details: pro-fluorophores, PBS buffer containing 0.6 % glutaraldehyde at pH 7
Method: Absorption spectra were recorded in a 1-cm path length cuvette (Hellma, 104.002B-QS) on a SPECORD®-205 spectrometer from Analytik Jena.
The Extinction coefficients of the flourophores fluorescein, 5-carboxyfluorescein (5-CF), 5-carboxy Oregon Green™ (5-COG), 5-amido N-propyl Oregon Green (5-POG; Example 2) and 5-amido N-propyl fluorescein (5-PFA; Example 3) were measured in 0.1 M NaOH solution at pH 12.7.
The extinction coefficients of the pro-fluorophores 5-thiourea N-propyl fluorescein diacetate (5-PFDAT; Example 5), 5-propyl carboxylate fluorescein diacetate (5-PFDAE; Example 8), 5-amido N-propyl fluorescein diacetate (5-PFDA; Example 7), 5-carboxy Oregon Green diacetate (5-COGDA; Example 9), 5-amido N-propyl Oregon Green diacetate (5-POGDA; Example 6) and 5-amido N-propyl Oregon Green acetoxymethylester (5-POGAM; Example 10) were measured in PBS buffer containing 0.6 % glutaraldehyde at pH 7.

[2] = system: Bacillus subtilis (B. subtilis) (ATCC 6633); assay: Bacteria staining test, fluorescence microscopy; format: cell-based; details: viable or dead B. subtilis, Fig. 3d
Method: (§1) Escherichia coli (E. coli) (ATCC 8739) and Bacillus subtilis (B. subtilis) (ATCC 6633) strains were routinely grown in Luria Bertani (LB) broth or on LB agar plates for 18h at 37 °C. Waterborne environmental bacteria such as Enterobacter cloacae (E. cloacae), Chryseobacterium indologenes (C. indologenes), Pseudomonas aeruginosa (P. aeruginosa), and E. coli (EC18) were purchased from Eurofins™. Environmental bacteria were grown in LB broth or on casein-peptone soymeal-peptone agar plates for 18h at 37 °C.
(§2) For the staining tests, E. coli (ATCC 8739 or EC18), E. cloacae, C. indologenes, P. aeruginosa and B. subtilis were cultivated in Luria-Bertani (LB) broth until exponential phase at 37°C with shaking at 300 rpm revolutions per minutes (rpm). Bacteria were harvested and washed in sterile phosphate buffer saline solution (PBS) at pH […] by centrifugation at 10000 rpm for 3 min at room temperature (21 ± 2 °C). Then the bacteria were resuspended in PBS at a concentration of 1·10^9 bacteria/ml. Bacteria concentration was calculated according to the turbidity measure at 660 nm (A660nm=1 correspond to bacterial suspension at ∼ 5·10^8 bacteria/ ml).
(§3) Dead bacterial suspensions at 1·10^9 bacteria/ml (negative controls) of these five species of bacteria were prepared individually by addition of 20 µl of bleach containing 2.6 % active chlorine. Bacteria were treated with bleach solution for 15 min. Dead bacteria were washed twice in sterile PBS by centrifugation at 10000 rpm for 3 min at room temperature. The culturability of the negative controls was assessed by plating 100 µl of bacterial suspension onto LB agar or Caso agar and incubating the plates at 37 °C for 72 h.
(§4) Bacteria (100 µl suspension at 1·10^9 bacteria/ml) were stained with 10 µM or 15 µM of pro-fluorophore (5-CFDA, 5-PFDAE, 5-PFDAT, 5-PFDA, 5-COGDA, 5-POGDA or 5-POGAM) in 200 µl of PBS solution containing 0.6 % of glutaraldehyde. Bacteria were incubated at 37 °C for 10 - 60 min with pro-fluorophore in darkness. After bacterial staining, they were washed and resuspended in 100 µl of PBS as described above.
(§5) Staining of the bacterial suspension was observed under a fluorescent microscope. These bacteria were imaged with a Leica DM5500 microscope equipped with FITC filter. […] Images were collected with a 100x objective. Fluorescence intensity of stained bacterial suspension was also measured with FluoroLog®-3 (Horiba Jobin Yvon) spectrofluorometer equipped with sample stirring. Samples were placed in fluorescence grade quartz cuvette having a volume of 1 ml. The excitation wavelength used was 488 nm and emission wavelength used was 517 nm. The same experiment was repeated three times (n = 3).

[3] = system: Chryseobacterium indologenes; assay: Bacteria staining test, fluorescence microscopy; format: cell-based; details: for fluorescence of stained viable bacteria compared with 5-CFDA: viable C. indologenes; for staining of viable versus dead bacteria: viable or dead C. indologenes, Fig. 3b
Method: as §1, §2, §3, §4, §5

Enterobacter cloacae = assay: Bacteria staining test, fluorescence microscopy; format: cell-based; details: for fluorescence of stained viable bacteria compared with 5-CFDA: viable E. cloacae; for staining of viable versus dead bacteria: viable or dead E. cloacae, Fig. 3a
Method: as §1, §2, §3, §4, §5

Pseudomonas aeruginosa = assay: Bacteria staining test, fluorescence microscopy; format: cell-based; details: for fluorescence of stained viable bacteria compared with 5-CFDA: viable P. aeruginosa; for staining of viable versus dead bacteria: viable or dead P. aeruginosa, Fig. 3c
Method: as §1, §2, §3, §4, §5

E. coli (EC18) = assay: Immunocapture of E. coli on beads and viability staining; format: cell-based, Escherichia coli; details: 10 µM, 30 min at 37 °C, Trypan Blue as contrast agent
Source text: In a further test, antibodies anti-EC18 pAB and pro-fluorophores (5-POGDA, 5-POGAM) were used to immobilize E. coli (EC18) on beads and to reveal the immobilized bacteria respectively. Immunocapture of E. coli on beads was done in order to concentrate the fluorescent signal in order to improve the detection of the viable cells. In these experiments, Protein G Sepharose beads coated with goat-anti-rabbit immunoglobulins were used.
Environmental E. coli (E18) were cultivated and re-suspended in PBS as previously described. E. coli (EC18) (100 µl of suspension at 1*10^9 bacteria/ml) were incubated with rabbit anti-EC18 polyclonal antibodies (anti-EC18 pAb) or pre-immune control rabbit serum without anti-EC18 antibodies (PI-pAb) (dilution 1/20) for 1 h at room temperature. This control rabbit serum (PI-pAb) was obtained from a non-immunized animal (Eurogentec). It was used as a negative control. Bacteria were washed three times in PBS by centrifugation at 10000 rpm for 3 min at room temperature.
Proteine G Sepharose 4 Fast Flow beads were washed three times in Milli-Q water and three times in PBS by centrifugation at 2000 rpm for 2 min at 4 °C. Then 10 µl of sedimented beads were incubated with 20 µg of secondary antibody goat-anti-rabbit immunoglobulin (Thermo Scientific Pierce, 31210) in 500 µl of PBS with 0.001% of NP40 for 1h at room temperature with gentle mixing on a wheel. […]

SMILES	E (extinction coefficient) [1]	λAbs max [1]	staining of viable versus dead bacteria [2]	fluorescence of stained viable bacteria compared with 5-CFDA [3]	staining of viable versus dead bacteria [3]	fluorescence of stained viable bacteria compared with 5-CFDA (Enterobacter cloacae)	staining of viable versus dead bacteria (Enterobacter cloacae)	fluorescence of stained viable bacteria compared with 5-CFDA (Pseudomonas aeruginosa)	staining of viable versus dead bacteria (Pseudomonas aeruginosa)	fluorescence intensity of viable E. coli captured on beads compared with 5-CFDA (E. coli (EC18))
CCCNC(=O)c1ccc2c(c1)C(=O)OC21c2cc(F)c(OCOC(C)=O)cc2Oc2cc(OCOC(C)=O)c(F)cc21 [Example 5-POGAM, 2',7'-difluoro-3-oxo-5-(propylcarbamoyl)-3H-spiroisobenzofuran-1,9'-xanthene-3',6'-diyl diacetoxymethyl ether]	11165 ± 334 M⁻¹ cm⁻¹	302 nm	stained only viable	brighter fluorescence than 5-CFDA stained bacteria	stained only viable	brighter fluorescence than 5-CFDA stained bacteria	stained only viable	brighter fluorescence than 5-CFDA stained bacteria	stained only viable	still higher than the fluorescence intensity of E. coli stained with 5-CFDA
CCCNC(=O)c1ccc2c(c1)C(=O)OC21c2cc(F)c(OC(C)=O)cc2Oc2cc(OC(C)=O)c(F)cc21 [Example 5-POGDA, 2',7'-difluoro-3-oxo-5-(propylcarbamoyl)-3H-spiro[isobenzofuran-1,9'-xanthene]-3',6'-diyl diacetate]	9784 ± 351 M⁻¹ cm⁻¹	303 nm	stained only viable	brighter fluorescence than 5-CFDA stained bacteria	stained only viable	brighter fluorescence than 5-CFDA stained bacteria	stained only viable	brighter fluorescence than 5-CFDA stained bacteria	stained only viable	still higher than the fluorescence intensity of E. coli stained with 5-CFDA
